Reference: publication PMC2915818 (2010)
One block for each molecule: values may come before it.

Key:
[1] = test system: 24bcl (DNA, G4) CGGGCGCGGGAGGAAGGGGGCGGG; assay: fluorescence titration, Equispec fit; settings: 185 mM K+, 185 mM Na+ (as KCl, NaCl); sodium phosphate, 1 mM EDTA, pH 7, 25 °C; excitation 252 nm; 0.2 μM compound
[2] = test system: HT24 (DNA, G4) TAGGGTTAGGGTTAGGGTTAGGGT; assay: fluorescence titration, Equispec fit; settings: 185 mM K+, 185 mM Na+ (as KCl, NaCl); sodium phosphate, 1 mM EDTA, pH 7, 25 °C; excitation 252 nm; 0.2 μM compound
[3] = test system: cmyc (DNA, G4) GGGGAGGGTGGGGAGGGTGGGGAAGGTGGGG; assay: fluorescence titration, Equispec fit; settings: 185 mM K+, 185 mM Na+ (as KCl, NaCl); sodium phosphate, 1 mM EDTA, pH 7, 25 °C; excitation 252 nm; 0.2 μM compound
[4] = test system: Ds26 (DNA, duplex) CAATCGGATCGAATTCGATCCGATTG; assay: competitive dialysis; settings: 185 mM KCl, 185 mM NaCl; sodium phosphate, 1 mM EDTA, pH 7, room temperature; 50 μM DNA, 1 μM compound
[5] = test system: cmyc (DNA, G4) GGGGAGGGTGGGGAGGGTGGGGAAGGTGGGG; assay: competitive dialysis; settings: 185 mM KCl, 185 mM NaCl; sodium phosphate, 1 mM EDTA, pH 7, room temperature; 50 μM DNA, 1 μM compound
[6] = test system: 24bcl (DNA, G4) CGGGCGCGGGAGGAAGGGGGCGGG; assay: competitive dialysis; settings: 185 mM KCl, 185 mM NaCl; sodium phosphate, 1 mM EDTA, pH 7, room temperature; 50 μM DNA, 1 μM compound
[7] = test system: TC triplex (DNA, triplex) CCTCCTCTCTTTCCCTTTTTCTTTCTCTCCTCC/GAAAGAGAGGAGG; assay: competitive dialysis; settings: 185 mM KCl, 185 mM NaCl; sodium phosphate, 1 mM EDTA, pH 7, room temperature; 50 μM DNA, 1 μM compound
[8] = test system: Dickerson (DNA, duplex) CGCGAATTCGCG; assay: fluorescence titration; settings: 185 mM K+, 185 mM Na+ (as KCl, NaCl); sodium phosphate, 1 mM EDTA, pH 7, 25 °C; up to 10 μM DNA, 0.2 μM compound

log K [1]: 5.1 ± 0.1
log K [2]: 4.6 ± 0.5
log K [3]: 4.9 ± 0.2
Structure (SMILES): CC(=O)NCCN(CC(=O)NCCN(CC(=O)NCCCCCCO)C(=O)CNC(=O)c1c2ccccc2nc2ccccc12)C(=O)CNC(=O)c1c2ccccc2nc2ccccc12

log K [1]: 6.8 ± 0.5
log K [2]: 4.9 ± 0.4
binding [4]: no
binding [7]: weak
log K [3]: 5.5 ± 0.3
binding [8]: no
Structure (SMILES): CC(=O)NCCN(CC(=O)NCCN(CC(=O)NCCCCCCOC(=O)CCC(=O)N(C)CC(N)=O)C(=O)CNC(=O)c1c2ccccc2nc2ccccc12)C(=O)CNC(=O)c1c2ccccc2nc2ccccc12

The remaining lines, values behind:

Structure (SMILES): CC(=O)NCCN(CC(=O)NCCN(CC(=O)NCCN(CC(=O)NCCCCCCOC(=O)CCC(=O)N(C)CC(N)=O)C(=O)CNC(=O)c1c2ccccc2nc2ccccc12)C(=O)CNC(=O)c1c2ccccc2nc2ccccc12)C(=O)CNC(=O)c1c2ccccc2nc2ccccc12
log K [1]: 5.3 ± 0.2
log K [2]: 5.3 ± 0.3
log K [3]: 4.8 ± 0.5

Structure (SMILES): O=C(O)c1c2ccccc2nc2ccccc12
binding [4]: yes

Structure (SMILES): O=C(O)CNC(=O)c1c2ccccc2nc2ccccc12
binding [4]: weak
binding [5]: yes
binding [6]: yes

Structure (SMILES): CC(=O)NCCN(CC(=O)NCCN(CC(=O)NCCN(CC(=O)NCCCCCCO)C(=O)CNC(=O)c1c2ccccc2nc2ccccc12)C(=O)CNC(=O)c1c2ccccc2nc2ccccc12)C(=O)CNC(=O)c1c2ccccc2nc2ccccc12
binding [6]: yes
log K [3]: 5.3 ± 0.2
